Assay: Surface activity by captive bubble surfactometry (quasi-static cycling)
Assay type: physicochemical
Conditions: FIG. 2; B-YL, B-LYL, B-AYL at 3% in 5:3:2 (wt:wt:wt) DPPC:POPC:POPG; S-MB, S-MB-DATK, MB-DATK added for comparison
Description: In this example, surface activity of the various peptides disclosed in the present disclosure were measured in mixtures of peptides and lipids using captive bubble surfactometry.
This example used peptide concentrations of 2-4% and a lipid mixture consisting of 5:3:2 (wt:wt:wt) DPPC:POPC:POPG. Lipids only were used a negative control and the clinical surfactant Infasurf™ as a positive control.
Low surface tension equals high surface activity.
Minimum tension values during the first 10 cycles of quasi-static cycling on the captive bubble surfactometer are compared with those of lipids only.
FIG. 2 compares 3% of B-YL (SEQ ID NO: 27), B-LYL (SEQ ID NO: 28) and B-AYL (SEQ ID NO: 29) in 5:3:2 (wt:wt:wt) DPPC:POPC:POPG with lipids only (negative control) and the clinical surfactant Infasurf™ (positive control). For comparison the minimum surface tension values of Super Mini-B (S-MB), Super Mini-B-DATK (S-MB-DATK) and Mini-B-DATK (MB-DATK) have been added to the figure.

Sequence: FPIPLPYCWLCRALIKRIQAMIPKGGRMLPQLVCRLVLRCS [Super Mini-B]
- Surface activity (minimum surface tension) as compared to the negative control (lipids only): excellent surface activity

Sequence: FPIPLPYYWLYRALIKRIQALIPKGGRLLPQLVYRLVLRYS [B-YL]
- Surface activity (minimum surface tension) as compared to the negative control (lipids only): excellent surface activity

Sequence: FPIPLPYLWLYRALIKRIQALIPKGGRLLPQLVYRLVLRLS [B-LYL]
- Surface activity (minimum surface tension) as compared to the negative control (lipids only): excellent surface activity

Sequence: CWLCRALIKRIQAMIDATKRMLPQLVCRLVLRCS [Mini-B-DATK, Mini-B analog with DATK turn, added for comparison]
- Surface activity (minimum surface tension) as compared to the negative control (lipids only): excellent surface activity

Sequence: FPIPLPYCWLCRALIKRIQAMIDATKRMLPQLVCRLVLRCS [Super Mini-B-DATK, Super Mini-B analog with DATK turn, added for comparison]
- Surface activity (minimum surface tension) as compared to the negative control (lipids only): excellent surface activity

Source: patent US10717777B2, “Synthetic lung surfactant with enhanced stability and effectiveness” (The Lundquist Institute for Biomedical Innovation at …, priority 2015, dated 2020)
